This note sets out measurements from patent US20260373134A1, “INHIBITORS OF DYRK1A” (Beth Israel Deaconess Medical Center, Inc., priority 2023, published 2026).

Read-outs that look alike come from different tables or passages of the source.

In general, Kd refers to the concentration at which binding is half-saturated. By IC50 is commonly meant the concentration needed to halve the response being measured. Higher therefore signals weaker potency.

The target in experiment [1] is T1, DYRK1A (Homo sapiens, UniProt Q13627).
T1 construct: T7 phage (kinase-tagged T7 phage), or a DNA tag for qPCR if produced in HEK-293; made in house; host or cells: E. coli (BL21-derived, T7 phage) for most kinases, HEK-293 for the remaining ones
Nature of the experiment: Competitive binding assay, KD to DYRK1A. The procedure: (§1) Methods: a competitive binding assay was used as the primary screen to measure the binding affinity (KD) to DYRK1A. Selectivity against DYRK1B/2 as well as the related CLK1-4 was determined by comparison of the KD in each of the enzymes. Cellular activity of representative compounds was obtained by measuring the p-Tau levels in HEK293 cells expressing human full-length DYRK1A and Tau.
(§2) Kinase assays. For most assays, kinase-tagged T7 phage strains were prepared in an E. coli host derived from the BL21 strain. E. coli were grown to log-phase and infected with T7 phage and incubated with shaking at 32 °C until lysis. The lysates were centrifuged and filtered to remove cell debris. The remaining kinases were produced in HEK-293 cells and subsequently tagged with DNA for qPCR detection. Streptavidin-coated magnetic beads were treated with biotinylated small molecule ligands for 30 minutes at room temperature to generate affinity resins for kinase assays. The liganded beads were blocked with excess biotin and washed with blocking buffer (SeaBlock (Pierce), 1% BSA, 0.05% Tween 20, 1 mM DTT) to remove unbound ligand and to reduce non-specific binding. […] Test compounds were prepared as 111× stocks in 100% DMSO. Kas were determined using an 11-point 3-fold compound dilution series with three DMSO control points. All compounds for Kd measurements are distributed by acoustic transfer (non-contact dispensing) in 100% DMSO. The compounds were then diluted directly into the assays such that the final concentration of DMSO was 0.9%. All reactions performed in polypropylene 384-well plate. Each was a final volume of 0.02 mL. The assay plates were incubated at room temperature with shaking for 1 hour and the affinity beads were washed with wash buffer (1×PBS, 0.05% Tween 20). The beads were then re-suspended in elution buffer (1×PBS, 0.05% Tween 20, 0.5 μM non-biotinylated affinity ligand) and incubated at room temperature with shaking for 30 minutes. The kinase concentration in the eluates was measured by qPCR.

Experiment [2] concerns the target T1, DYRK1A. As to the kind of experiment: Kinase assay, % inhibition at fixed concentrations (Table 1b). It counts as binding. The settings on record: for inhibition at 10 µM: read-out: % inh at 10 μM. The procedure: as §1, §2
Experiment [3] deals with T2, Tau phosphorylation (human DYRK1A and Tau) in HEK293 cells (Homo sapiens, UniProt Q13627).
T2 construct: p-Tau ELISA
Nature of the experiment: Kinase cellular assay: p-Tau levels in HEK293 cells expressing full-length human DYRK1A and Tau. It counts as cell-based. The settings on record: Table 1a. The procedure:
as §1
Kinase Cellular Assay: HEK293 human embryonic kidney cells were transiently co-transfected with vectors encoding full-length human DYRK1A and Tau. Cells were dispensed into 96-well plates at a number previously determined by cell titration and signal optimization for the DYRK1A assay. Compounds were diluted to 200× final assay concentration in DMSO. Eight 3-fold or 4-fold serial dilutions were prepared for each compound in 100% DMSO. Compounds were then diluted in tissue culture medium to 10× final assay concentration and 5% DMSO. Compounds were added to the cells in 96-well plates (10-fold dilution in medium) for a final concentration of 1× compound and 0.5% DMSO. For positive (high signal) controls, cells were treated with 0.5% DMSO alone. For negative (low signal) controls, cells were treated with 20 μM harmine including 0.5% DMSO final concentration. Cells were incubated with compound at 37 °C for 2 hours. Cells were lysed, and lysates were transferred to an ELISA plate that had been previously coated with antibody to capture the substrate (human Tau). Plates were washed then incubated with an antibody to detect phosphorylation of Tau. Plates were washed then incubated with HRP-linked secondary antibody. Plates were washed, then HRP substrate was added. Absorbance was read at 450 nm. Percent inhibition values were calculated from absorbance readings based on positive and negative control values, and according to the following formula: (% INH=((positive control−sample)/(positive control−negative control))[…]. Z′ values were calculated based on the following formula: 1−[(3×standard deviation of positives+3×standard deviation of negatives)/(average positive−average negative)]. Percent inhibition values were plotted vs. the log of compound concentrations utilizing GraphPad Prism software. IC50s were determined after utilizing sigmoidal dose response curve fitting to generate the curves.

The subject of experiment [4] is IL-17. As to the kind of experiment: T-cell inflammation inhibition assay (anti-CD3 stimulated PBMCs), IL-17. The experiment is classed as cell-based. Particulars: Homo sapiens, PBMC, read-out: % inh at 5 μM IL17. The procedure:
(§3) T-cell Inflammation Inhibition Assay Protocol: Day 1, High binding plates were coated with anti-CD3 (clone UCHT-1, 2 μg/mL) and isotype IgG1 using PBS 1× and incubated overnight at 4 °C. Day 2: Cryopreserved PBMCs were drip thawed and diluted to the appropriate density and seeded into U bottom 96-well polypropylene plates (1.2×10^5 cells per well) with 228 μL per well of culture medium (RPMI 1640, 10% heat-inactivated FBS, 1% penicillin/streptomycin, 2 mM L-glutamine). Cells were incubated at 37 °C, 5% CO2 for 1 hour prior to the addition of test compounds. Test compounds were solubilized in DMSO and further diluted to 20× with cell culture medium. Compounds were added to the PBMCs in volumes of 12 μL (1×) in triplicate and incubated for 1 hour at 37 °C, 5% CO2. For reference compound, 12 μL of dexamethasone (100 nM) was added to the control wells according to the plate map and incubated for 1 hour at 37 °C, 5% CO2. After 1 hour incubation, 200 μL of cells (1×10^5) treated with test compounds or controls were transferred to the anti-CD3 coated plates and incubated for 24 hours at 37 °C, 5% CO2, For positive and negative controls, transferred 200 μL (1×10^5) of cells to the coated plate with anti-CD3 or isotype IgG1. Plates were centrifuged at 200×g for 10 minutes. Cell culture supernatants were collected and stored at −80 °C until needed for analysis. Cytokine levels in each sample were determined using Luminex methodology, per the manufacturer's protocol, Luminex assessment of cytokine levels in cell culture supernatants in tissue culture medium, was performed per manufacturer's protocol using the Human Cytokine/Chemokine Magnetic bead panel from Millipore Sigma (catalogue No. HCYTOMAG-60K) with standards range 3.2, 16, 80, 400, 2,000, 10,000 pg/mL. Cytokines Measured: The following cytokines were measured for a complete cytokine response profile. Human panel, T cell (neat): IL-2, IL-17, […].

The subject of experiment [5] is INFg. Nature of the experiment: T-cell inflammation inhibition assay (anti-CD3 stimulated PBMCs), IFN gamma. It counts as cell-based. The settings on record: Homo sapiens, PBMC, read-out: % inh at 5 μM INFg. The procedure: as §3
The subject of experiment [6] is IL-2. Nature of the experiment: T-cell inflammation inhibition assay (anti-CD3 stimulated PBMCs), IL-2. It counts as cell-based. The settings on record: Homo sapiens, PBMC, read-out: % inh at 5 μM IL2. The method, then: as §3

Turning to `CC1(COC(=O)Nc2nc3cc(-c4ccncc4)ccc3[nH]2)COC1` [Compound 1, (3-methyloxetan-3-yl)methyl (5-(pyridin-4-yl)-1H-benzo[d]imidazol-2-yl)carbamate], in experiment [1] (read-out: KD), the Kd is 0.17 nM. The equilibrium dissociation constant (Kd) in experiment [1] (read-out: KD (bound)) is under 1 nM. Besides, in experiment [2], the inhibition at 1 µM is 100% and the inhibition at 10 µM is 100%. Besides, the inhibition at 0.1 µM in experiment [2] (read-out: % inh at 0.1 μM) is 100%. Moreover, in experiment [3], the IC50 is 37 nM.

Turning to `COC(=O)Nc1nc2cc(-c3ccnc(C)c3)ccc2[nH]1` [Compound 2, Methyl (5-(2-methylpyridin-4-yl)-1H-benzo[d]imidazol-2-yl)carbamate], the inhibition at 5 µM in experiment [4] turned out to be 22.8%; in experiment [4] (second value), 35.9%; in experiment [5], 31.4%; in experiment [5] (second value) it was 11.5%; in experiment [6], 46.5%; in experiment [6] (second value), 42.3%. The Kd in experiment [1] (read-out: KD) was 0.72 nM; in experiment [1] (read-out: KD (bound)), under 1 nM. In experiment [3], this molecule registered an IC50 of 280 nM.

On to `Cc1cc(-c2ccc3[nH]c(NC(=O)OCC4COC4)nc3c2)ccn1` [Compound 5, Oxetan-3-ylmethyl (5-(2-methylpyridin-4-yl)-1H-benzo[d]imidazol-2-yl)carbamate], for which the inhibition at 5 µM in experiment [4] amounted to 47.8%; in experiment [4] (second value), 51.8%; in experiment [5], 58.8%; in experiment [5] (second value), 46%; in experiment [6], 78.2%; in experiment [6] (second value), 59.3%. Further, the equilibrium dissociation constant (Kd) in experiment [1] (read-out: KD) is 0.33 nM; in experiment [1] (read-out: KD (bound)), under 1 nM. For the same molecule, the IC50 in experiment [3] amounted to 55 nM.

Regarding `Cc1cc(-c2ccc3[nH]c(NC(=O)NCC4(C)COC4)nc3c2)ccn1` [Compound 6, 1-((3-Methyloxetan-3-yl)methyl)-3-(5-(2-methylpyridin-4-yl)-1H-benzo[d]imidazol-2-yl)urea], the inhibition at 5 µM in experiment [4] came to 9.3%; in experiment [4] (second value) it was 7.3%; in experiment [5] it was 30%; in experiment [6], 38.9%; in experiment [6] (second value), 35.8%. Moreover, in experiment [3], the half-inhibitory concentration (IC50) was 827 nM.

Take `O=C(Nc1nc2cc(-c3cccnc3)ccc2[nH]1)OCC1COC1` [Compound 7, Oxetan-3-ylmethyl (5-(pyridin-3-yl)-1H-benzo[d]imidazol-2-yl)carbamate]: the inhibition at 5 µM came out at 24.4% in experiment [5], 36.9% in experiment [6] and 43.4% in experiment [6] (second value).

Regarding `O=C(Nc1nc2cc(-c3ccncc3)ccc2[nH]1)OCC1COC1` [Compound 10, Oxetan-3-ylmethyl (5-(pyridin-4-yl)-1H-benzo[d]imidazol-2-yl)carbamate], the inhibition at 5 µM is 35% in experiment [4]; 30.4% in experiment [4] (second value); 57.5% in experiment [5]; 39.9% in experiment [5] (second value); 76.1% in experiment [6]; 59.8% in experiment [6] (second value). The IC50 in experiment [3] came out at 26 nM.

Consider `CC1(CNC(=O)Nc2nc3cc(-c4ccncc4)ccc3[nH]2)COC1` [Compound 11, 1-((3-Methyloxetan-3-yl)methyl)-3-(5-(pyridin-4-yl)-1H-benzo[d]imidazol-2-yl)urea], for which the Kd in experiment [1] (read-out: KD) is 0.33 nM; in experiment [1] (read-out: KD (bound)), under 1 nM.

In the case of `Cc1cc(-c2ccc3[nH]c(NC(=O)OCC4(C)COC4)nc3c2)ccn1` [Compound 12, (3-methyloxetan-3-yl)methyl (5-(2-methylpyridin-4-yl)-1H-benzo[d]imidazol-2-yl)carbamate], the dissociation constant (Kd) was 0.14 nM in experiment [1] (read-out: KD) and under 1 nM in experiment [1] (read-out: KD (bound)).

For the molecule `COC(=O)Nc1nc2cc(OC)ccc2[nH]1` [Compound 17, Methyl (5-methoxy-1H-benzo[d]imidazol-2-yl)carbamate], the inhibition at 10 µM in experiment [2] came to 69%.

Regarding `COc1ccc2[nH]c(N)nc2c1` [Compound 18, 5-Methoxy-1H-benzo[d]imidazol-2-amine], the inhibition at 10 µM in experiment [2] amounted to 11%.

For the molecule `COc1ccc2[nH]c(NC(=O)OCCN(C)C)nc2c1` [Compound 19, 2-(Dimethylamino)ethyl (5-methoxy-1H-benzo[d]imidazol-2-yl)carbamate], the inhibition at 10 µM in experiment [2] amounted to 51%.

Consider `COc1ccc2[nH]c(NC(=O)OCC3(C)COC3)nc2c1` [Compound 20, (3-Methyloxetan-3-yl)methyl (5-methoxy-1H-benzo[d]imidazol-2-yl)carbamate], for which, in experiment [2], the inhibition at 1 µM amounted to 63% and the inhibition at 10 µM turned out to be 96.4%.

In the case of `COc1ccc2[nH]c(NC(=O)OCc3cccc(F)c3)nc2c1` [Compound 21, 3-Fluorobenzyl (5-methoxy-1H-benzo[d]imidazol-2-yl)carbamate], the inhibition at 10 µM in experiment [2] worked out at 69%.
